Laboratory results from patent US20210061872A1 (PROTAGONIST THERAPEUTICS, published 2021).
Values belong to the molecule of their own block, whether it stands above or below them.

What was measured:
PV patients = assay: Phase 2 study in phlebotomy-requiring Polycythemia vera
Cynomolgus monkeys [1] = assay: repeat-dose study, 13 weekly SC doses, limiting erythropoiesis; format: in vivo
Text: A cohort of animals (4/sex/group) were sacrificed on Day 92 (Main), and the remaining animals (2/sex/group) were sacrificed on Day 120 following a 35-day recovery period (Recovery).

healthy subjects = assay: Phase I single dose study; format: in vivo, human; details: 62 healthy subjects
Text: Compound A is a hepcidin mimetic agent in clinical studies for multiple blood disorders.

Cynomolgus monkeys [2] = assay: PK-PD experiment, serum iron (Cobas IRON2); format: in vivo
Procedure: Iron content in plasma/serum was measured using a colorimetric assay on the Cobas c 111 according to instructions from the manufacturer of the assay (assay: IRON2: ACN 661).

[3] = test system: patients with phlebotomy-dependent PV and splenomegaly; details: through week 32; 6 events with BAT; cited from earlier work
PV mice = details: cited from earlier work
human ferroportin = target: T1, human ferroportin (Homo sapiens, UniProt Q9NP59); assay: ferroportin-GFP internalization/degradation assay in HEK293 cells; format: cell-based; details: read-out: Potency EC50
T1 construct: expressed in transfected cells
T1 sequence (Q9NP59 1-571): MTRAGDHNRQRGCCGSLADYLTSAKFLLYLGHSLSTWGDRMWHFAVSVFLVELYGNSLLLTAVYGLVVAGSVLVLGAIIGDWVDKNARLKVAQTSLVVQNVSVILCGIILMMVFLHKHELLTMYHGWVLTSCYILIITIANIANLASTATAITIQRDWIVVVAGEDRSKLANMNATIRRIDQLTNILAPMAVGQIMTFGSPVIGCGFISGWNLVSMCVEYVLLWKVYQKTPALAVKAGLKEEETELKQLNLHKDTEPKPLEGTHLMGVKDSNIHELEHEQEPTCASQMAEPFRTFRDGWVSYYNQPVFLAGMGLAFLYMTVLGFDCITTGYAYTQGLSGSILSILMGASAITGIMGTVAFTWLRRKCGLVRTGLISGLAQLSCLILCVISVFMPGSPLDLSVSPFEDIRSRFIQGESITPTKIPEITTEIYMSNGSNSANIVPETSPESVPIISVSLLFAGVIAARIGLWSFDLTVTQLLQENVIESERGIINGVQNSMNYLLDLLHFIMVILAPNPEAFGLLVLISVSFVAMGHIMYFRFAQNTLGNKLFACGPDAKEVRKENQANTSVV

[4] = target: T2, human ferroportin (SLC40A1) fused in frame with GFP, stably expressed on HEK293 cells (human, UniProt Q9NP59 1-571); assay: cell-based or functional assay
T2 sequence (looked up): T1 sequence (Q9NP59 1-571)

[5] = SC doses of 10 mg to 80 mg, various times after dosing

Molecule: Isovaleric acid-DTHFPCIKF(K(PEG11-Palm))PRSK[Sar]CK-NH2 [Compound B]
- time of maximal serum iron reduction (Cynomolgus monkeys [2]; 2.93 mg/kg SC): about 12 hour
- serum iron reduction, lower than pre-dose levels (Cynomolgus monkeys [2]; 2.93 mg/kg SC, at about 12 hour): 12 fold
- serum concentrations having maximum effect on serum iron (Cynomolgus monkeys [2]; SC single dose): 50 to 125 ng/mL
- serum concentrations that were effective on serum iron (Cynomolgus monkeys [2]; SC single dose): 25 to 125 ng/mL

Molecule: N#CC[C@H](C1CCCC1)n1cc(-c2ncnc3[nH]ccc23)cn1 [ruxolitinib]
- thromboembolic events [3]: 1 event

Molecule: minihepcidin: hepcidin mimetic administered to PV mice in Casu et al., Blood 2016 (DTHFPICIF)
- hematocrit (PV mice): normalizes hematocrit
- splenomegaly (PV mice): significantly reduces splenomegaly

Molecule: H-DTHFPICIF-NH2 [Mini-Hepcidin]
- Potency EC50 (nM); ferroportin internalization/degradation, decrease in GFP fluorescence of ferroportin-GFP HEK293 cells [4]: 712 nM

Now from value to molecule, other results behind:

- plasma concentrations of Compound A, lower end of range (below detectable) (PV patients; [5]): < 2 ng/mL
- plasma concentrations of Compound A, upper end of range (PV patients; [5]): 866 ng/mL
- platelet counts (PV patients; over the course of treatment, FIG. 14): remained generally steady
- leukocyte count (PV patients; over the course of treatment, FIG. 16): remained generally steady
- grade of most injection site reactions (PV patients; transient, no patient discontinued): 1-2 grade
- total bilirubin (tBili) (Cynomolgus monkeys [1]; at ≥2 mg/kg/day, treatment period, FIG. 4): increase in total bilirubin
Molecule: CCCCCCCCCCCCCCCC(=O)N[C@@H](CCC(=O)NCCCC[C@@H]1NC(=O)[C@H]([C@@H](C)CC)NC(=O)[C@@H](NC(=O)[C@@H]2CCCN2C(=O)[C@H](Cc2ccccc2)NC(=O)[C@H](Cc2c[nH]cn2)NC(=O)[C@@H](NC(=O)[C@H](CC(=O)O)NC(=O)CC(C)C)[C@@H](C)O)CSSC[C@@H](C(=O)N[C@@H](CCCCN)C(N)=O)NC(=O)CNC(=O)[C@H](CCCCN)NC(=O)[C@H](CO)NC(=O)[C@H](CCCNC(=N)N)NC(=O)[C@@H]2CCCN2C(=O)[C@H](CCC(=O)O)NC(=O)[C@H](Cc2ccccc2)NC1=O)C(=O)O [Compound A]
- most frequent adverse events (PV patients; 10-80 mg SC weekly): injection site reaction (ISR) reported by three patients
- tolerability (PV patients; 10-80 mg SC weekly): well tolerated
- platelets (Cynomolgus monkeys [1]; 6 mg/kg/dose, male and female, FIG. 5): significantly elevated levels of platelets
- bone marrow (femur, sternum) findings (Cynomolgus monkeys [1]; at ≥2 mg/kg/dose): hematopoietic hypercellularity occurred in bone marrow
- liver and spleen findings (Cynomolgus monkeys [1]; at ≥2 mg/kg/dose): extramedullary hematopoiesis and hemosiderin deposition was observed in the liver and spleen
- adverse events (healthy subjects): without significant adverse events

- EC50 (human ferroportin): > 10 µM
Molecule: CC[C@@H](C)[C@@H](NC(=O)[C@H](N)Cc1ccccc1)C(=O)N[C@H](CS)C(=O)N[C@@H](C(=O)N1CCC[C@@H]1C(=O)N[C@H](Cc1ccccc1)C(=O)N[C@H](Cc1c[nH]cn1)C(=O)N[C@@H](C(=O)N[C@H](CC(=O)O)C(N)=O)[C@H](C)O)[C@H](C)CC [RI-Mini Hepcidin, Hy-DPhe-DIle-DCys-DIle-DPro-DPhe-DHis-DThr-DAsp-NH2]

- Potency EC50 (nM); ferroportin internalization/degradation, decrease in GFP fluorescence of ferroportin-GFP HEK293 cells [4]: > 10000 nM
B1: RI-Mini Hepcidin (peptide)
peptide: FICIPFHTD
modifications: all residues are D-amino acids (Hy-DPhe-DIle-DCys-DIle-DPro-DPhe-DHis-DThr-DAsp-NH2); C-terminal amide
